Data: publication PMC8901636, “Preclinical studies of Flonoltinib Maleate, a novel JAK2/FLT3 inhibitor, in treatment of JAK2^V617F-induced myeloproliferative neoplasms” (Blood Cancer Journal, 2022)
Where two headings read alike, the source gives them in different places.

Key:
[1] = PK and tissue distribution after repeated oral administration in Ba/F3-EPOR-JAK2^V617F tumor-bearing mice; assay type: in vivo; conditions: for Kp: spleen and plasma, po
JAK1/JAK2 = assay: Cytokine-stimulated cell-based assay, IFN-γ-induced p-STAT1 in U2OS cells; conditions: Homo sapiens
Ba/F3-JAK2^V617F = assay: MTT assay for cell proliferation; assay type: cell-based, Murine; conditions: Mus musculus, 72 h, read-out: IC50(μM) ± SD, tumor cell proliferation
Experimental: (§1) For in vitro inhibition assays, cells were seeded in 96-well culture plates with a density of 15,000–20,000 cells/well after the cells reached 70–90% confluence. […] MTT (3-(4, 5-dimethylthiazol-2-yl)-2, 5-diphenyltetrazolium bromide) (Cat. No. 1334GR001; BioFroxx) assay was conducted in order to examine viability. The IC50 values were fitted using GraphPad Prism 7.0.

HEL = assay: MTT assay for cell proliferation; assay type: cell-based; conditions: Homo sapiens, 72 h, read-out: IC50(μM) ± SD, tumor cell proliferation
Experimental: as §1

Ba/F3-FLT3-ITD = assay: MTT assay for cell proliferation; assay type: cell-based, Murine; conditions: Mus musculus, Ba/F3 FLT3-ITD, 72 h, read-out: IC50(μM) ± SD, tumor cell proliferation
Experimental: as §1

JAK1 = JAK1 (Homo sapiens, UniProt P23458); assay: In vitro kinase assay; conditions: read-out: JAK1 Enzyme IC50
Sequence of JAK1 (P23458 whole entry): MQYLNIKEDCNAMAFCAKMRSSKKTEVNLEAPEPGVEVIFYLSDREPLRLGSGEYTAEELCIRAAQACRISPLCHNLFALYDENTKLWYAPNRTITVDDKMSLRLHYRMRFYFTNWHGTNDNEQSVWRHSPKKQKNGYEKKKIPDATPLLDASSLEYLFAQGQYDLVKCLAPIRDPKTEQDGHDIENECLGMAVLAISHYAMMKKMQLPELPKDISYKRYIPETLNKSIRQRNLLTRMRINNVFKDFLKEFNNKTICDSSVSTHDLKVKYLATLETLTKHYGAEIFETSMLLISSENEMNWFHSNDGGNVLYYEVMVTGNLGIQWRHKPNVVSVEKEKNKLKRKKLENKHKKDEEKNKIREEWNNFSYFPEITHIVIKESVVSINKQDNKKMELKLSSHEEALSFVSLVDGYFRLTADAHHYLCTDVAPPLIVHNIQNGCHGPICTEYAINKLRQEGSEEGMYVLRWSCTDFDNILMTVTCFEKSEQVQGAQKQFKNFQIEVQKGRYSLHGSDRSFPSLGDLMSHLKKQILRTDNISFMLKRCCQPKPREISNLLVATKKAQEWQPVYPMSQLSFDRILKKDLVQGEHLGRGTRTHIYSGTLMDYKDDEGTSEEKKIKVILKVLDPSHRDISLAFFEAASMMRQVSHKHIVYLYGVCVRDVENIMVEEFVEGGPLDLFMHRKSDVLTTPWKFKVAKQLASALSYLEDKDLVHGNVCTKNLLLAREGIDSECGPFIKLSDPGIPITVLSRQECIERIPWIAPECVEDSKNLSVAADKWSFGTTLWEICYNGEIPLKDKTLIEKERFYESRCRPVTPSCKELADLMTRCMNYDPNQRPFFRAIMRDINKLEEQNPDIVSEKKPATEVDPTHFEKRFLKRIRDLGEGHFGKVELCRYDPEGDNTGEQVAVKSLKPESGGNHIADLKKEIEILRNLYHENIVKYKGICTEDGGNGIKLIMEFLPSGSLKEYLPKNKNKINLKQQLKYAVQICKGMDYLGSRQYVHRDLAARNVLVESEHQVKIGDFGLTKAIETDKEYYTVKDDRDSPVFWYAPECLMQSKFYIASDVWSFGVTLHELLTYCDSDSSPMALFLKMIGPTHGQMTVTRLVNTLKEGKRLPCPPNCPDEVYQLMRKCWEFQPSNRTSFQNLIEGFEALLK

JAK1/TYK2 pathway = assay: Cytokine-stimulated cell-based assay, IFN-α-induced p-STAT1; conditions: western blotting
[2] = system: Ba/F3-EPOR-JAK2^V617F cells; assay: PD study after repeated administration in Ba/F3-EPOR-JAK2^V617F tumor-bearing mice; assay type: in vivo
Experimental: For Ba/F3-EPOR-JAK2^V617F driven malignant model after repeated administration, tumor-bearing mice were randomly divided into 8 groups on the 10th day. Mice were sacrificed at 0, 0.25, 0.5, 1, 4, 8, 12, and 24 hours after the last oral administration, and tissue samples were harvested to determine the distribution of FM and PK parameters by UFLC-MS/MS. For PD studies, we weighed the spleen, and analyzed the ratio of GFP^+ in the spleen and PB by flow cytometry, and test the downstream pathway protein p-STAT5 (Y694, Cat. No. Ab32364) via Western Blot.
With the decrease of drug concentration, the level of p-STAT5 increased to a certain extent, but 12 hours after administration, the level of p-STAT5 still decreased (Fig. 5C). […] 71 ± 7. 91%, respectively. In addition, the weight of spleen was 267.2 ± 56.8 mg in the untreated group and 167.5 ± 52.9 mg in the repeated administration groups (12 hours after the last administration) (Fig. 5D and Fig. S4E).

Ba/F3-FLT3-ITD^D835V = assay: MTT assay for cell proliferation; assay type: cell-based, Murine; conditions: Mus musculus, 72 h, read-out: IC50(μM) ± SD, tumor cell proliferation
Experimental: as §1

JAK2^V617F = JAK2^V617F bone marrow transplantation (BMT) myelofibrosis model; assay type: in vivo, BALB/c mice; conditions: for inhibition of splenomegaly: figure prints it with a minus sign over Spleen Wight (mg); for median survival time: vehicle 133.5 days; for BM Reticulin, fibrosis grade: bone marrow, WHO grading, vehicle MF-2
[3] = BALB/c nude, mouse, plasma, oral, 30 mg/kg, repeated, read-out: FM concentration, Plasma
[4] = BALB/c nude, mouse, spleen, oral, 30 mg/kg, repeated, read-out: FM concentration, Spleen
[5] = BALB/c nude, mouse, stomach, oral, 30 mg/kg, repeated, read-out: FM concentration, Stomach
[6] = BALB/c nude, mouse, Plasma, repeated oral 30 mg/kg
[7] = BALB/c nude, mouse, Spleen, repeated oral 30 mg/kg
[8] = before the last administration, 30 mg/kg repeated

Cc1cnc(Nc2ccc(N3CCC(N(C)CCO)CC3)c(F)c2)nc1-c1cnn(C(C)C)c1 [FM, 2-((1-(2-fluoro-4-((4-(1-isopropyl-1H-pyrazol-4-yl)-5-methylpyrimidin-2-yl)amino)phenyl)piperidin-4-yl)(methyl)amino)ethan-1-ol]
concentration at 0.5 h [1, 3]: 889 ± 238 ng/mL
concentration at 1 h [1, 3]: 1040 ± 375 ng/mL
concentration at 2 h [1, 3]: 638 ± 168 ng/mL
concentration at 4 h [1, 3]: 292 ± 101 ng/mL
concentration at 8 h ([1]; BALB/c nude, mouse, plasma, oral, 30 mg/kg, repeated, 8 h, read-out: FM concentration, Plasma): 106 ± 84.1 ng/mL
concentration at 12 h ([1]; BALB/c nude, mouse, plasma, oral, 30 mg/kg, repeated, 12 h, read-out: FM concentration, Plasma): 19.3 ± 12.9 ng/mL
concentration at 24 h ([1]; BALB/c nude, mouse, plasma, oral, 30 mg/kg, repeated, 24 h, read-out: FM concentration, Plasma): 5.56 ± 4.97 ng/mL
Kp ([1]; BALB/c nude, mouse, 30 mg/kg, AUC(0–24h) of spleen higher than that of plasma, repeated oral 30 mg/kg): 17.9
Kp ([1]; BALB/c nude, mouse, 30 mg/kg, repeated oral 30 mg/kg, read-out: Cmax of spleen higher than that of plasma): 14.1
concentration at 0 h [1, 4]: 69 ± 44.8 ng/g
concentration at 0.25 h ([1]; BALB/c nude, mouse, spleen, oral, 30 mg/kg, repeated, 0.25 h, read-out: FM concentration, Spleen): 3700 ± 1440 ng/g
concentration at 0.5 h [1, 4]: 12100 ± 1910 ng/g
concentration at 1 h [1, 4]: 17100 ± 6420 ng/g
concentration at 2 h [1, 4]: 12200 ± 4390 ng/g
concentration at 4 h [1, 4]: 6180 ± 1680 ng/g
concentration at 8 h ([1]; BALB/c nude, mouse, spleen, oral, 30 mg/kg, repeated, 8 h after the last administration, read-out: FM concentration, Spleen): 2150 ± 1390 ng/g
concentration at 12 h ([1]; BALB/c nude, mouse, spleen, oral, 30 mg/kg, repeated, 12 h after the last administration, read-out: FM concentration, Spleen): 391 ± 181 ng/g
concentration at 0 h [1, 5]: 71.8 ± 44.3 ng/g
concentration at 0.5 h [1, 5]: 33100 ± 22700 ng/g
concentration at 2 h [1, 5]: 19300 ± 20700 ng/g
concentration at 4 h [1, 5]: 11700 ± 8600 ng/g
concentration at 8 h ([1]; BALB/c nude, mouse, stomach, oral, 30 mg/kg, repeated, 8 h, read-out: FM concentration, Stomach): 3500 ± 5190 ng/g
concentration at 12 h ([1]; BALB/c nude, mouse, stomach, oral, 30 mg/kg, repeated, 12 h, read-out: FM concentration, Stomach): 2490 ± 2530 ng/g
Cmax [1, 6]: 1280 ± 455 ng/mL
half-life [1, 6]: 2.85 ± 1.14 h
AUC(0-t) ([1]; BALB/c nude, mouse, Plasma, repeated oral 30 mg/kg, read-out: AUC0–24 h): 3740 ± 704 ng·h/mL
Cmax [1, 7]: 18100 ± 5680 ng/g
half-life [1, 7]: 2.37 ± 0.58 h
Cl ([1]; Plasma, repeated oral 30 mg/kg): 137 ± 31.8 mL/min/kg
Vdss ([1]; Plasma, repeated oral 30 mg/kg): 32.81 ± 11.21 L/kg
AUC0–24 h ([1]; Spleen, repeated oral 30 mg/kg): 67200.44 ± 11858.88 ng^.h/mL
IC50 (JAK1/JAK2): 390 nM
IC50 (Ba/F3-JAK2^V617F): 0.2 ± 0.01 µM
IC50 (HEL): 0.26 ± 0.2 µM
IC50 (Ba/F3-FLT3-ITD): 0.12 ± 0.01 µM
IC50 (JAK1): 690 nM
IC50 (JAK1/TYK2 pathway): > 5000 nM
GFP^+ tumor cells in PB ([2]; 12 hours after the 17th administration, 30 mg/kg): 11.77 ± 5.5%
GFP^+ tumor cells in PB [2, 8]: 19.75 ± 12.93%
GFP^+ tumor cells in spleen [2, 8]: 17.12 ± 8.15%
weight of spleen ([2]; repeated administration, 12 hours after the last administration, untreated 267.2 ± 56.8 mg): 167.5 ± 52.9 mg
p-STAT5 level down-regulated by ([2]; spleen, 8 hours after administration, 30 mg/kg repeated): 43.80 ± 1.59%
IC50 (Ba/F3-FLT3-ITD^D835V): 0.1 ± 0.06 µM
inhibition of splenomegaly (JAK2^V617F; 15 mg/kg bid p.o.): 97.11%
median survival time (JAK2^V617F; 15 mg/kg bid p.o.): > 180 days
inhibition of splenomegaly (JAK2^V617F; 30 mg/kg bid p.o.): 101.62%
median survival time (JAK2^V617F; 30 mg/kg bid p.o.): > 180 days
inhibition of splenomegaly (JAK2^V617F; 45 mg/kg bid p.o.): 101.24%
median survival time (JAK2^V617F; 45 mg/kg bid p.o.): > 180 days
BM Reticulin, fibrosis grade (JAK2^V617F; 30 mg/kg): non-MF
BM Reticulin, fibrosis grade (JAK2^V617F; 45 mg/kg): non-MF
